Source: US11672775B2, “Treprostinil prodrugs” (United Therapeutics Corporation, priority 2016, dated 2023)
Values after ≈ are worked out from the molar mass of the structure shown. “Also recorded” adds a separate entry of the source.

Legend:
[1] = Equilibrium solubility in vehicle; format: physicochemical; conditions: 20 mM sodium phosphate dibasic with 125 mM sodium chloride; for solubility thermodynamic at 23 h: read-out: Equilibrium solubility, T0 hours Concentration; for solubility thermodynamic at 24 h: read-out: Equilibrium solubility, T24 hours Concentration; for solubility thermodynamic at 72 h: read-out: Equilibrium solubility, T72 hours Concentration
Protocol: (§1) Each prodrug was dissolved in a vehicle containing 20 mM sodium phosphate dibasic with 125 mM sodium chloride. Prodrugs were prepared at saturation concentrations by weighing 15-30 mg of prodrug in to a 4 mL clear glass vial and dissolving in an appropriate volume of vehicle (0.5-1.0 mL) to achieve a nominal saturation concentration of 30 mg/mL. The solutions were mixed for 23 hours on a rotating mixer. […] The resultant supernatant solutions were isolated from undissolved prodrug by centrifugation at 15000 RPM for 15 min. Supernatants were transferred to clear glass vials and stored at ambient temperature. […] The resultant samples were assayed against treprostinil to determine prodrug concentration. At each testing interval (0, 24, 72 hours) the supernatant was assayed for prodrug concentration and purity by area %.

[2] = Solution stability in vehicle (UPLC area %); format: physicochemical; conditions: for Solution stability, T0 Purity / T0 Residual Treprostinil: 20 mM sodium phosphate dibasic with 125 mM sodium chloride; for Solution stability, T0 Purity: ambient; for Solution stability, T24 hours Purity / Solution stability, T72 hours Purity / T24 Residual Treprostinil / T72 Residual Treprostinil: same vehicle
Protocol: as §1

[3] = Stability in 200 mM potassium phosphate buffer (pH 7.4); format: physicochemical; conditions: 1 μM
Protocol: According to the earlier aqueous solution stability study, all prodrugs are stable in 20 mM Sodium Phosphate dibasic with 125 mM NaCl at saturation concentrations (3-30 mg/ml). Also, in the method development work, it was also observed that the most unstable prodrugs III, IV and XIV were stable in 200 mM potassium phosphate buffer (pH 7.4) at a low concentration of 1 μM.

[4] = system: Sprague Dawley rats; assay: Rat intraplantar injection model, thermal pain sensitivity (Example 9); format: in vivo, Sprague Dawley rat; conditions: both doses (1 and 100 μg/mL); both time points
Protocol: (§2) Male Sprague Dawley rats (n=112) were allocated into 14 groups of 8/group. The study was run in 2 cycles, on consecutive days, 7 groups per cycle. Each cycle was composed of a Saline group, PBS group, which served as the control, and also treprostinil at a dose of 100 μg/mL or 1 μg/mL.
(§3) Animals were administered 0.1 mL of test material by subcutaneous injection into the paw pad (Intraplantar injection) at time zero. Animals were subsequently evaluated for their response to mechanical (von Frey filaments) and thermal stimuli, 15 and 90 minutes post-injection. The von Frey test was conducted prior to the thermal test, which followed immediately within minutes for each animal. In addition, clinical observation scoring of the animal's reaction to injection was conducted. FIG. 16 schematically illustrates the study design.
The sensitivity of animals to a thermal pain stimulus was assessed immediately following the von Frey test. The time until withdrawal of the right-injected leg from a heat source was measured, and the lower (faster) the time of response represents a greater sensitivity to the stimulus. The test was performed 15 and 90 minutes post-Test Item injection.

[5] = system: Sprague Dawley rats; assay: Rat intraplantar injection model, von Frey test (Example 9); format: in vivo, Sprague Dawley rat; conditions: for sensitivity to mechanical stimulation vs similar doses of treprostinil: both doses
Protocol: as §2, §3
Mechanical pain sensitivity was tested using the von Frey test, which measures the withdrawal force threshold of the animals. The lower the force applied represents a greater sensitivity to the stimulus. The von Frey test was performed 15 and 90 minutes post-Test Item injection.

[6] = system: Sprague Dawley rats; assay: Rat intraplantar injection model, clinical observation score (Example 9); format: in vivo, Sprague Dawley rat; conditions: for clinical score: 15 min; for clinical score vs similar doses of treprostinil: both doses
Protocol: as §2, §3
A Clinical observation score was assigned by assessing for redness, swelling and paw placement.

[7] = aqueous buffer, thermodynamic from solid, T0 hours
[8] = aqueous buffer, thermodynamic from solid, T24 hours
[9] = aqueous buffer, thermodynamic from solid, T72 hours
[10] = 1 μg/mL or 100 μg/mL, 15 and 90 minutes post-injection
[11] = 100 μg/mL (cycle 1), 90 minutes post-injection
[12] = only the 1 μg/mL dose, both time points

Row | Compound | solubility thermodynamic at 23 h [1, 7] [µg/mL] | solubility thermodynamic at 24 h [1, 8] [µg/mL] | solubility thermodynamic at 72 h [1, 9] [µg/mL] | Solution stability, T0 Purity [2] [% Area] | Solution stability, T24 hours Purity [2] [% Area] | Solution stability, T72 hours Purity [2] [% Area] | T0 Residual Treprostinil [2] [% Area] | T24 Residual Treprostinil [2] [% Area] | T72 Residual Treprostinil [2] [% Area] | clinical score ([6]; 100 μg/mL (cycle 1)) | also measured
1 | CCCCC[C@H](O)CC[C@@H]1[C@H]2Cc3cccc(OCC(=O)N[C@@H](CO)C(=O)O)c3C[C@H]2C[C@H]1O [Prodrug XIII, treprostinil serine amide] | 3200 (≈ 6.7 mM) | 3700 (≈ 7.75 mM) | 3800 (≈ 7.96 mM) | 97.66 | 97.81 | 97.58 | – | – | – | – | solubility at 23 h ([1]; aqueous buffer, thermodynamic from solid, approximate, read-out: Solubility in the selected vehicle): ~3500 µg/mL (≈ 7.33 mM)
2 | CCCCC[C@H](O)CC[C@@H]1[C@H]2Cc3cccc(OCC(=O)N[C@@H](C)C(=O)O)c3C[C@H]2C[C@H]1O [Prodrug X, treprostinil alanine amide] | 10000 (≈ 21.7 mM) | 10600 (≈ 23 mM) | 11300 (≈ 24.5 mM) | 96.59 | 96.32 | 96.54 | 0.08 | 0.08 | 0.08 | – | –
3 | CCCCC[C@H](O)CC[C@@H]1[C@H]2Cc3cccc(OCC(=O)O)c3C[C@H]2C[C@H]1OC(=O)OC [Prodrug III, cyclopentyl methyl carbonate of treprostinil] | 6100 (≈ 13.6 mM) | 6000 (≈ 13.4 mM) | 6200 (≈ 13.8 mM) | 94.48 | 94.31 | 94.61 | 0.15 | 0.14 | 0.15 | – | stability in buffer [3]: stable
4 | CCCCC[C@H](O)CC[C@@H]1[C@H]2Cc3cccc(OCC(=O)NC(C(=O)O)C(C)C)c3C[C@H]2C[C@H]1O (stereo partly drawn) [Prodrug XI, treprostinil valine amide] | 11500 (≈ 23.5 mM) | 11300 (≈ 23.1 mM) | 11500 (≈ 23.5 mM) | 99.49 | 99.39 | 98.92 | – | – | – | – | –
5 | treprostinil monomethyl carbamate [Prodrug VIII] | – | – | – | 96.41 | 96.40 | 96.34 | 0.11 | 0.11 | 0.15 | non-zero | thermal paw withdrawal time vs PBS group [4]: trend toward reduction in the time of response; Equilibrium solubility, T0 hours Concentration ([1]; T0 hours): 11000 µg/mL; Equilibrium solubility, T24 hours Concentration ([1]; T24 hours): 10500 µg/mL; Equilibrium solubility, T72 hours Concentration ([1]; T72 hours): 10900 µg/mL; von Frey withdrawal force threshold vs PBS-treated group [5, 10]: no statistically significant difference; sensitivity to mechanical stimulation vs similar doses of treprostinil ([5]; both time points): statistically significant reduced sensitivity; clinical score vs PBS group ([6]; 100 μg/mL, both time points): not statistically significantly different; clinical score vs similar doses of treprostinil ([6]; both time points): reduced clinical score
6 | CCCCC[C@@H](CC[C@@H]1[C@H]2Cc3cccc(OCC(=O)O)c3C[C@H]2C[C@H]1O)OC(=O)N(C)C [Prodrug II, treprostinil side-chain carbamate] | – | – | – | – | – | – | – | – | – | non-zero | von Frey withdrawal force threshold vs PBS-treated group [5, 10]: no statistically significant difference; sensitivity to mechanical stimulation vs similar doses of treprostinil ([5]; both time points): statistically significant reduced sensitivity; clinical score vs PBS group [6, 11]: non-zero; clinical score vs PBS group ([6]; 100 μg/mL, both time points): not statistically significantly different; clinical score vs similar doses of treprostinil ([6]; both time points): reduced clinical score
7 | CCCCC[C@H](O)CC[C@@H]1[C@H]2Cc3cccc(OCC(=O)NC(CC(=O)O)C(=O)O)c3C[C@H]2C[C@H]1O (stereo partly drawn) [Prodrug XII, treprostinil aspartic acid amide] | 7400 (≈ 14.6 mM) | 7500 (≈ 14.8 mM) | 7400 (≈ 14.6 mM) | 98.70 | 98.68 | 98.58 | – | – | – | – | –
8 | CCCCC[C@H](O)CC[C@@H]1[C@H]2Cc3cccc(OCC(=O)O)c3C[C@H]2C[C@H]1OC(=O)N(C)C [Prodrug I, treprostinil ring carbamate] | – | – | – | – | – | – | – | – | – | non-zero | von Frey withdrawal force threshold vs PBS-treated group ([5]; 1 μg/mL, both time points post-injection): no statistically significant difference; von Frey withdrawal force threshold vs PBS-treated group ([5]; 100 μg/mL, 15 minutes post-injection): no statistically significant difference; von Frey withdrawal force threshold vs PBS-treated group ([5]; 100 μg/mL, 90 minutes post-injection): statistically significant increased sensitivity; sensitivity to mechanical stimulation vs similar dose of treprostinil [5, 12]: reduced sensitivity; clinical score vs PBS group [6, 11]: non-zero; also recorded: statistically significant increase in the clinical score; clinical score vs similar dose of treprostinil [6, 12]: reduced clinical score
